{
  "source": "patent US12343326B2",
  "about": "“Psychoactive medicines and their use for treating psychiatric and neurological conditions and disorders” (Transcend Therapeutics, Inc., priority 2021, dated 2025)",
  "key": {"C57BL/6J mice": {"test_system": "C57BL/6J mice", "experiment": "Cued fear conditioning, extinction training and recall (Example 35)", "format": "in vivo, mouse", "method": "Methods: Cued fear conditioning was performed in C57BL/6J mice. On day 1, animals were placed in the chambers and presented with a training session (CS-US pairing). The training consisted of a 2-minute habituation followed by a 30-second, 80 dB tone; during the last 2 seconds of the tone animals received a 1 mA foot shock. This US-CS procedure occurred once for a total of one paired presentation of tone and shock. Freezing behavior (immobility) was recorded in 5-10-sec intervals during the session. Percent baseline freezing behavior was determined in the 2-minute habituation period. On day 3, animals were placed in context B, in which tactile and odor cues differed from context A. Following a 2 minute acclimation period animals received 4×30 sec presentations of the CS (tone) in the absence of the US (footshock), with a 45 sec interval between presentations. Freezing was recorded in 5-10-sec intervals to measure baseline freezing response to the altered context, and freezing response to each tone cue presentation. […] Freezing was recorded in 5-10-sec intervals to measure baseline freezing response to the altered context, and freezing response to each tone cue presentation."}, "[1]": {"test_system": "patients with a primary diagnosis of PTSD", "experiment": "Case series with long-term follow-up (Example 5): CGI-I, durability, safety", "format": "in vivo, human", "text": "The patients were not given structured psychotherapy in conjunction with methylone treatment, which differs from recent studies of MDMA that emphasize the importance of a manualized psychedelic-assisted psychotherapy model.\nNo protected health information was disclosed, and no consent was obtained from patients for use of their archival data. Case narratives were systematically compiled from data collected as part of routine clinical work. Diagnoses were confirmed by an experienced clinician using semi-structured interviews. Baseline symptom severity was evaluated using the Clinical Global Impressions Scale-Severity (CGI-S). Symptom improvement was evaluated using the Clinical Global Impressions Scale-Improvement (CGI-I) following dosing. […] Because these case narratives were examined retrospectively from routine clinical care records, and not gathered prospectively in a research study, more specific validated rating scales for assessing PTSD symptoms were not available. Additionally, follow-up varied, with the length of follow-up ranging from one week (Case 2) to 15 years (Case 16).\nDosing summary: Methylone was administered orally. Other medications were not changed during methylone treatment. […] In several cases, treatment was continued, and, in some cases, the dose was further escalated in later sessions (see Table 5). Booster doses were included for 19 patients in one or more of the sessions. Starting doses were between 100 and 270 mg, and these as well as booster doses were selected based on clinical judgement."}, "168 GPCRs [2]": {"target": "168 GPCRs (Homo sapiens, UniProt Q99705)", "sequence (Q99705 whole entry)": "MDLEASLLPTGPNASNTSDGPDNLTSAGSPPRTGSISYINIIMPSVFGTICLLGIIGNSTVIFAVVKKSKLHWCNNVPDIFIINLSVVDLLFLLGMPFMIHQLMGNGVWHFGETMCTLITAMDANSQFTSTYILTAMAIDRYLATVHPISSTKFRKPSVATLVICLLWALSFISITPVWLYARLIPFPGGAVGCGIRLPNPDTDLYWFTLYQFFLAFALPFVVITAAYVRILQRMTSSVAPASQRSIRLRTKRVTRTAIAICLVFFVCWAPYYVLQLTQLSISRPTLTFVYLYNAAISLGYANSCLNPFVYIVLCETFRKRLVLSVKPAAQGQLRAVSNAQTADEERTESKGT", "experiment": "β-arrestin based GPCR screen (PathHunter / GPCRmax), antagonist mode"}, "168 GPCRs [3]": {"target": "168 GPCRs (Homo sapiens, UniProt P49683)", "sequence (P49683 whole entry)": "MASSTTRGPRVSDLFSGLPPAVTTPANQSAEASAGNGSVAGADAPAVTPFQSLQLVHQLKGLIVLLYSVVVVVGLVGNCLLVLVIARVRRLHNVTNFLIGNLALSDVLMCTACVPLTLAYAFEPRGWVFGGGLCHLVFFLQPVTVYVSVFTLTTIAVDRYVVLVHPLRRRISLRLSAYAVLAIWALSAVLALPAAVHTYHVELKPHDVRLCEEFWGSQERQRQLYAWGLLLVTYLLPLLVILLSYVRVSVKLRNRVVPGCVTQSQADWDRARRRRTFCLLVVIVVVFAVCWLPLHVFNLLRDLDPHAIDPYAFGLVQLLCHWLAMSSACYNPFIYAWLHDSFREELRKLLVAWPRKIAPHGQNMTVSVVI", "experiment": "β-arrestin based GPCR screen (PathHunter / GPCRmax), antagonist mode", "conditions": "PRLHR"}, "168 GPCRs [4]": {"target": "168 GPCRs (Homo sapiens, UniProt P25106)", "sequence (P25106 whole entry)": "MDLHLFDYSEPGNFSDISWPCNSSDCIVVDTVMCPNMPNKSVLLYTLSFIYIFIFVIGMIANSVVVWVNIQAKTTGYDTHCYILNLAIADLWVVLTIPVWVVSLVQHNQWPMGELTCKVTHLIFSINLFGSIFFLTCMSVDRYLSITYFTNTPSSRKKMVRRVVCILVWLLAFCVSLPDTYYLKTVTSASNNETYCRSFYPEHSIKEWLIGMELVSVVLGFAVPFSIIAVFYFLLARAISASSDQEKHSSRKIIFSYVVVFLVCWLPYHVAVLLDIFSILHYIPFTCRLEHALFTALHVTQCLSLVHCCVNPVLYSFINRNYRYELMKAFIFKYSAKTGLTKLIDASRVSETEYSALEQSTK", "experiment": "β-arrestin based GPCR screen (PathHunter / GPCRmax), antagonist mode"}, "168 GPCRs [5]": {"target": "168 GPCRs (Homo sapiens, UniProt Q99500)", "sequence (Q99500 whole entry)": "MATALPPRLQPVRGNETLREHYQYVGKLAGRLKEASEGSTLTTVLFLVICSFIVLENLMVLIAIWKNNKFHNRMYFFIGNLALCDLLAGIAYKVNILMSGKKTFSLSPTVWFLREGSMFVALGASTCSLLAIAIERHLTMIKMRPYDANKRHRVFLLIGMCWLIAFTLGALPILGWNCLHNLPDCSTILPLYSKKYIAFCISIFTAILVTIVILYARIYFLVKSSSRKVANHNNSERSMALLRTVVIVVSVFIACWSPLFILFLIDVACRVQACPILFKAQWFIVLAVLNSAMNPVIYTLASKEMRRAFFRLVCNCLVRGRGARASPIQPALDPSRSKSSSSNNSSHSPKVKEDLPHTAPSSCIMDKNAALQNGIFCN", "experiment": "β-arrestin based GPCR screen (PathHunter / GPCRmax), antagonist mode"}, "168 GPCRs [6]": {"target": "168 GPCRs (Homo sapiens, UniProt P16473)", "sequence (P16473 21-764)": "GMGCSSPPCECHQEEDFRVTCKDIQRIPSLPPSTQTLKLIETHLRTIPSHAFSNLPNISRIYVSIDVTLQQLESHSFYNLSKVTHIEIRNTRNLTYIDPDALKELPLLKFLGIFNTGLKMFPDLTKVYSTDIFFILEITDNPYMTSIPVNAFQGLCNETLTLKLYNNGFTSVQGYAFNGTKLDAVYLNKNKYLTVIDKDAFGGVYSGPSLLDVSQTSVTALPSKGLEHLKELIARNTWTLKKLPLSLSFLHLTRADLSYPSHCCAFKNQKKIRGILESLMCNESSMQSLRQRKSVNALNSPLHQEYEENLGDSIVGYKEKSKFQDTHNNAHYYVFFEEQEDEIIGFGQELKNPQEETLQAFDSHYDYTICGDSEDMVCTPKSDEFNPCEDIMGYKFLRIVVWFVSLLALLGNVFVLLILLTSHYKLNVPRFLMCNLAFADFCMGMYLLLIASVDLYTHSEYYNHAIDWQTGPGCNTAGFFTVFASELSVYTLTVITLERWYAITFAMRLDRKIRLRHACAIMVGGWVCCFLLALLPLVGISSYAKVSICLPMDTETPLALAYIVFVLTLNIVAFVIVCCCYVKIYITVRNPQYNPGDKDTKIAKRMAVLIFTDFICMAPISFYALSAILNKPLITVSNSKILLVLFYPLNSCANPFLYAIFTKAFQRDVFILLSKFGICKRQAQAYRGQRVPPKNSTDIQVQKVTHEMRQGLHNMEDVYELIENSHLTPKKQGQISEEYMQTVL", "experiment": "β-arrestin based GPCR screen (PathHunter / GPCRmax), antagonist mode", "conditions": "TSHR(L)"}, "168 GPCRs [7]": {"target": "168 GPCRs (Homo sapiens, UniProt P34981)", "sequence (P34981 whole entry)": "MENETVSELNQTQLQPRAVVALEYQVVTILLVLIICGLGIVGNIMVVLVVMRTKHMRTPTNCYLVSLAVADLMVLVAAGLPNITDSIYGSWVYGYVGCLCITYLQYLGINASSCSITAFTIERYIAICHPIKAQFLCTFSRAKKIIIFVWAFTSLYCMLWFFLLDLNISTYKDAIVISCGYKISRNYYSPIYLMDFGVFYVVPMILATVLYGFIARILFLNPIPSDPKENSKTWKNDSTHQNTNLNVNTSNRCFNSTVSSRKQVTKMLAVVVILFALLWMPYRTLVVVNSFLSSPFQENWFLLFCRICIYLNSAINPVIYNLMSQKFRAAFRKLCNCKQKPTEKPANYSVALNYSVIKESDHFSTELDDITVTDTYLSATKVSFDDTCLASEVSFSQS", "experiment": "β-arrestin based GPCR screen (PathHunter / GPCRmax), antagonist mode", "conditions": "TRHR"}, "168 GPCRs [8]": {"target": "168 GPCRs (Homo sapiens, UniProt Q99788)", "sequence (Q99788 whole entry)": "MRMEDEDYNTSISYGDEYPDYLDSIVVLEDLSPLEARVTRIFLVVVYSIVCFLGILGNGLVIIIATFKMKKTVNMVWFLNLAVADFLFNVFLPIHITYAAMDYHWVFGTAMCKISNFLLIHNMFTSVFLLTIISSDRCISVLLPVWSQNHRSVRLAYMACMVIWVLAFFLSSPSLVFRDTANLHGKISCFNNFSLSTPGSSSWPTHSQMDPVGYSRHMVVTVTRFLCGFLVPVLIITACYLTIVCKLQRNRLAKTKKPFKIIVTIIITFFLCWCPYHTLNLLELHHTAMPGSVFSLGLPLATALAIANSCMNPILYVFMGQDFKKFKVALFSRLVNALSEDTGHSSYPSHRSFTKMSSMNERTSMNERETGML", "experiment": "β-arrestin based GPCR screen (PathHunter / GPCRmax), antagonist mode", "conditions": "CMKLR1, Antagonist"}, "168 GPCRs [9]": {"target": "168 GPCRs (Homo sapiens, UniProt P43088)", "sequence (P43088 whole entry)": "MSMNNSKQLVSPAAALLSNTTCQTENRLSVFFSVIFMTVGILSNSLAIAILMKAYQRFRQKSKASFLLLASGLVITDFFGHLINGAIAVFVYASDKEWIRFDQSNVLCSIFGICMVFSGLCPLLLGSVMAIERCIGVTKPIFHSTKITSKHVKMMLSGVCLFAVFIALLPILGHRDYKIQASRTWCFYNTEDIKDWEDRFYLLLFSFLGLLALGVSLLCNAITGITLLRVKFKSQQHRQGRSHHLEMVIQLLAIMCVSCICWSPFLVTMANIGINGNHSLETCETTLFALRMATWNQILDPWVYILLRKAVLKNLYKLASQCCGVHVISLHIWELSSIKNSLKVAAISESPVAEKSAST", "experiment": "β-arrestin based GPCR screen (PathHunter / GPCRmax), antagonist mode", "conditions": "PTGFR"}, "[10]": {"target": "serotonin transporter (SERT) (Rattus norvegicus, UniProt P31652)", "sequence (P31652 whole entry)": "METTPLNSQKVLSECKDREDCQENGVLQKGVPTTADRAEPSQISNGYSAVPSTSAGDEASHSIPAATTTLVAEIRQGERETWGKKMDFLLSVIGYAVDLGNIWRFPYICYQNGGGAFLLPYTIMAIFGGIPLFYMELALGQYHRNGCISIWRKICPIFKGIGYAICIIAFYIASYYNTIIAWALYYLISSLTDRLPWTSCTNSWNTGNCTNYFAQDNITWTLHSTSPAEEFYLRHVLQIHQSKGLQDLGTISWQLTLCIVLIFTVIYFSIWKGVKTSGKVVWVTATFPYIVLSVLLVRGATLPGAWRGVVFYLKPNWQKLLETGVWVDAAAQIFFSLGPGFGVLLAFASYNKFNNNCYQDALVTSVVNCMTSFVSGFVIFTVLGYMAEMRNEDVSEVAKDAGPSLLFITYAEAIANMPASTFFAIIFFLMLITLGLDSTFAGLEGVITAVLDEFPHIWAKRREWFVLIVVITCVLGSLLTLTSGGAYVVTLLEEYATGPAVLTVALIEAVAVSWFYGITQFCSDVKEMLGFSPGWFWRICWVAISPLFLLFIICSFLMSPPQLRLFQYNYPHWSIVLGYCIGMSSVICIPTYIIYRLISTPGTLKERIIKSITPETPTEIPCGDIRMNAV", "experiment": "[3H]5HT uptake saturation in rat brain synaptosomes with or without methylone", "format": "biochemical", "conditions": "two concentrations of methylone"}, "[11]": {"test_system": "patients with PTSD or MDD", "experiment": "Methylone case series, Cohort 2: CGI-S/CGI-I efficacy and safety", "format": "in vivo, human", "method": "CGI-S scale was also evaluated in a subset of patients from Cohort 2 post-treatment. Cohort 2 was evaluated for any observed or reported safety events following a single dosing session. Clinical Global Improvement Scale\nClinical Global Impressions (CGI) scale includes 2 components: CGI-S (“severity”) and CGI-I (“improvement”).\nCohort 2 is composed of 28 patients with PTSD or MDD treated in an outpatient setting.\nOnly sessions that included methylone dosing were counted as dosing sessions.\nSingle sessions occurred for 8 of the 28 cases with no booster in two of these cases. In the remainder of the cases, multiple sessions occurred, and booster doses were used in all or some of the remaining patients ([…]) with multiple booster doses used in some or all of the sessions in 15 patients."}, "5HT5A": {"target": "T1, 5HT5A (Homo sapiens, UniProt P47898)", "T1 construct": "beta-galactosidase enzyme fragment (PathHunter complementation tag); host or cells: PathHunter cell lines", "T1 sequence (P47898 whole entry, the tested form may be a part)": "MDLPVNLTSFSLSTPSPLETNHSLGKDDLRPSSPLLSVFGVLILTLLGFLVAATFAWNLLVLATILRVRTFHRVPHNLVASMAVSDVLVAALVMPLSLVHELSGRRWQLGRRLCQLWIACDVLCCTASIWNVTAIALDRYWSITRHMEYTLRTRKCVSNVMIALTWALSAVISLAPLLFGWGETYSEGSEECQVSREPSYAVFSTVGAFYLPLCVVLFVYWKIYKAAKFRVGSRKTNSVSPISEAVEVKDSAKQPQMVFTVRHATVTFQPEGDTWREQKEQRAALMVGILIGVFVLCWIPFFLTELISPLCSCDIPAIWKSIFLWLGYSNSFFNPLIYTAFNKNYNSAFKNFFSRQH", "experiment": "GPCRmax screen, agonist mode", "format": "cell-based"}, "[12]": {"conditions": "Cohort 2, N = 28, highest observed"}},
  "note": "Marks after values point to notes of the source that are not given here.",
  "data": [
    {"smiles": "CNC(C)C(=O)c1ccc2c(c1)OCO2", "note": "(stereo not drawn) [methylone, 3,4-methylenedioxy-N-methylcathinone]", "values": [
      {"measurement": "fear extinction training on day 3", "setting": "C57BL/6J mice; all doses: 10, 20 or 30 mg/kg IP", "result": "significantly improved fear extinction training"},
      {"measurement": "effect on fear extinction training and testing", "setting": "C57BL/6J mice; methylone 30 mg/kg IP 30 min before extinction training on Day 3", "result": "rapid, robust and long-lasting beneficial effect"},
      {"measurement": "discontinuation due to adverse events", "setting": "[1]; 21 patients", "result": "no patients discontinued treatment due to adverse events"},
      {"measurement": "total adverse events noted", "setting": "[1]; in three of the 21 patients", "result": "four"},
      {"measurement": "patients achieving CGI-I of 1 (very much improved)", "setting": "[1]; of 21 patients", "result": 9, "unit": "patients"},
      {"measurement": "patients achieving CGI-I of 2 (much improved)", "setting": "[1]; of 21 patients", "result": 8, "unit": "patients"},
      {"measurement": "activity at 10 µM", "setting": "168 GPCRs [2]; MCHR1, Antagonist mode, 10 uM", "result": -18.3, "unit": "%"},
      {"measurement": "activity at 1 µM", "setting": "168 GPCRs [2]; MCHR1, Antagonist, 1 uM", "result": -12.2, "unit": "%"},
      {"measurement": "activity at 10 µM", "setting": "168 GPCRs [3]; Antagonist mode, 10 uM", "result": 15.8, "unit": "%"},
      {"measurement": "activity at 1 µM", "setting": "168 GPCRs [3]; Antagonist, 1 uM", "result": 17.8, "unit": "%"},
      {"measurement": "activity at 10 µM", "setting": "168 GPCRs [4]; CXCR7, Antagonist mode, 10 uM", "result": 7.3, "unit": "%"},
      {"measurement": "activity at 1 µM", "setting": "168 GPCRs [4]; CXCR7, Antagonist, 1 uM", "result": 14.1, "unit": "%"},
      {"measurement": "activity at 10 µM", "setting": "168 GPCRs [5]; EDG3, Antagonist mode, 10 uM", "result": 13.6, "unit": "%"},
      {"measurement": "activity at 1 µM", "setting": "168 GPCRs [5]; EDG3, Antagonist, 1 uM", "result": 25.8, "unit": "%"},
      {"measurement": "activity at 10 µM", "setting": "168 GPCRs [6]; Antagonist mode, 10 uM", "result": -6.6, "unit": "%"},
      {"measurement": "activity at 1 µM", "setting": "168 GPCRs [6]; Antagonist, 1 uM", "result": 6.1, "unit": "%"},
      {"measurement": "activity at 10 µM", "setting": "168 GPCRs [7]; Antagonist mode, 10 uM", "result": 2.8, "unit": "%"},
      {"measurement": "activity at 1 µM", "setting": "168 GPCRs [7]; Antagonist, 1 uM", "result": -7.2, "unit": "%"},
      {"measurement": "activity at 1 µM", "setting": "168 GPCRs [8]; 1 uM", "result": -0.2, "unit": "%"},
      {"measurement": "activity at 10 µM", "setting": "168 GPCRs [8]; 10 uM", "result": -5.6, "unit": "%"},
      {"measurement": "activity at 10 µM", "setting": "168 GPCRs [9]; Antagonist mode, 10 uM", "result": 0, "unit": "%"},
      {"measurement": "activity at 1 µM", "setting": "168 GPCRs [9]; Antagonist, 1 uM", "result": 0.9, "unit": "%"},
      {"measurement": "type of interaction at the SERT", "setting": "[10]; [3H]5HT saturation curves", "result": "competitive"},
      {"measurement": "effect on Bmax of [3H]5HT uptake", "setting": "[10]", "result": "no decrease in Bmax"},
      {"measurement": "effect on Kd of [3H]5HT uptake", "setting": "[10]", "result": "right shifted"},
      {"measurement": "Magnitude of Improvement: Number of cases with CGI-I 1", "setting": "[11]; [12]", "result": "11* cases"},
      {"measurement": "Magnitude of Improvement: Number of cases with CGI-I 2", "setting": "[11]; [12]", "result": 13, "unit": "cases"},
      {"measurement": "Magnitude of Improvement: Number of cases with CGI-I 3", "setting": "[11]; [12]", "result": 4, "unit": "cases"},
      {"measurement": "Magnitude of Improvement: Number of cases with CGI-I 4", "setting": "[11]; [12]", "result": 0, "unit": "cases"},
      {"measurement": "Magnitude of Improvement: Number of cases with CGI-I 5", "setting": "[11]; [12]", "result": 0, "unit": "cases"},
      {"measurement": "Magnitude of Improvement: Number of cases with CGI-I 6", "setting": "[11]; [12]", "result": 0, "unit": "cases"},
      {"measurement": "Magnitude of Improvement: Number of cases with CGI-I 7", "setting": "[11]; [12]", "result": 0, "unit": "cases"},
      {"measurement": "number of patients with adverse events following methylone dosing", "setting": "[11]; Cohort 2, N = 28, all ≥65 years of age", "result": 3, "unit": "patients"},
      {"measurement": "agonist % activity, greatest activity detected", "setting": "5HT5A; 1 or 10 mM, threshold 30%", "result": 13.9, "unit": "%"},
      {"measurement": "activity at 10 µM", "setting": "5HT5A; HTR5A, Agonist mode, 10 uM", "result": 13.9, "unit": "%"},
      {"measurement": "activity at 1 µM", "setting": "5HT5A; HTR5A, Agonist, 1 uM", "result": 13.6, "unit": "%"}
    ]}
  ]
}
